From patent US20070208001A1, “Modulators of 11- beta hydroxyl steroid dehydrogenase type 1, pharmaceutical compositions thereof, and methods of using the same” (priority 2006, published 2007)

What was measured:
[1] = target: T1, human 11βHSD1 (Homo sapiens, UniProt P28845); assay: Enzymatic assay of 11βHSD1 (Scintillation Proximity Assay, clarified lysates); assay type: biochemical; settings: SPA, HEK-293 lysate expressing full-length human 11βHSD1, 25 nM 3H-cortisone, 400 μM NADPH, 37° C., one hour
T1 construct: made in house; host or cells: HEK-293 transient transfectants; clarified lysate, not purified
Description: Enzymatic assay of 11βHSD1
All in vitro assays were performed with clarified lysates as the source of 11βHSD1 activity. HEK-293 transient transfectants expressing an epitope-tagged version of full-length human 11βHSD1 were harvested by centrifugation. Roughly 2×10^7 cells were resuspended in 40 mL of lysis buffer (25 mM Tris-HCl, pH 7.5, 0.1 M NaCl, 1 mM MgCl2 and 250 mM sucrose) and lysed in a microfluidizer. Lysates were clarified by centrifugation and the supernatants were aliquoted and frozen.
Inhibition of 11βHSD1 by test compounds was assessed in vitro by a Scintillation Proximity Assay (SPA). Dry test compounds were dissolved at 5 mM in DMSO. These were diluted in DMSO to suitable concentrations for the SPA assay. 0.8 μL of 2-fold serial dilutions of compounds were dotted on 384 well plates in DMSO such that 3 logs of compound concentration were covered. 20 μL of clarified lysate was added to each well. Reactions were initiated by addition of 20 μL of substrate-cofactor mix in assay buffer (25 mM Tris-HCl, pH 7.5, 0.1 M NaCl, 1 mM MgCl2) to final concentrations of 400 μM NADPH, 25 nM ^3H-cortisone and 0.007% Triton X-100. Plates were incubated at 37° C. for one hour. […] Quenched plates were incubated for a minimum of 30 minutes at RT prior to reading on a Topcount scintillation counter. […]

[2] = system: healthy volunteers; settings: after seven days of carbenoxolone treatment; cited from earlier work

T1 sequence (P28845 whole entry): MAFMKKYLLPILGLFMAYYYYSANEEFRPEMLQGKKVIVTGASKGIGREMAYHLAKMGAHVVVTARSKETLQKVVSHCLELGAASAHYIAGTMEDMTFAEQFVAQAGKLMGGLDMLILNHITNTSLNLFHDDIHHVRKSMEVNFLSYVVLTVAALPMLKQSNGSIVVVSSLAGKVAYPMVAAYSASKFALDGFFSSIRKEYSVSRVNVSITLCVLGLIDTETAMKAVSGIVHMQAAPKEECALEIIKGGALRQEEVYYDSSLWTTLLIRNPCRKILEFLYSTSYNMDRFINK

| IC50 [1] [µM] | SMILES | IOP was reduced by [2] [%] |
| --- | --- | --- |
| < 5 | CC(=O)N1CCC2(CC(C3(c4ccc(Cl)cc4)CC3)=NO2)C1 (centres unmarked) [Example 1, 7-Acetyl-3-[1-(4-chlorophenyl)cyclopropyl]-1-oxa-2,7-diazaspiro[4.4]non-2-ene] |  |
|  | CC1(C)[C@@H](OC(=O)CCC(=O)O)CC[C@]2(C)[C@H]3C(=O)C=C4[C@@H]5C[C@@](C)(C(=O)O)CC[C@]5(C)CC[C@@]4(C)[C@]3(C)CC[C@@H]12 [carbenoxolone] | 18 |
